Our source for the Ki and EC50 values is patent publication EP4729516A1, “S[…] DERIVATIVE, INTERMEDIATE, PREPARATION METHOD THEREFOR AND USE THEREOF” (Jiangsu NHWA Pharmaceutical Co., Ltd, priority 2023, dated 2024).

Structures can show the parent of a compound that is named as a salt. Where two headings read alike, the source gives them in different places.

In one assay the target is T1, α1A receptor (Homo sapiens, UniProt P35348).
T1 construct: expressed in transfected cells; host or cells: CHO-K1
T1 sequence (P35348 1-466): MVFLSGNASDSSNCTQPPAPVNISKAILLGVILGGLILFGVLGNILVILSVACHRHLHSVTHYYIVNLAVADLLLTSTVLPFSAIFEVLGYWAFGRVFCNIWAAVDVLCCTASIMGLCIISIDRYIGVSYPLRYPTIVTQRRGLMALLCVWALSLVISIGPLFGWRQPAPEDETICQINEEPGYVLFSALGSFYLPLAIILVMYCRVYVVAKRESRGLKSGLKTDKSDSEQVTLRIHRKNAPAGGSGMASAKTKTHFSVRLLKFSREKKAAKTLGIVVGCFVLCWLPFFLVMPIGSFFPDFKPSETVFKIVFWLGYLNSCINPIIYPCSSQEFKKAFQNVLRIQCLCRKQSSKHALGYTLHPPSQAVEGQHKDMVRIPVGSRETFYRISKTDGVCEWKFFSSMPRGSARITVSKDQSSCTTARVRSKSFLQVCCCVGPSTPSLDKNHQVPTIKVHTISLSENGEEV
Description: Competitive receptor binding assay, α1A (3H-Prazosin, CHO-K1-α1A membranes). On the procedure:
(§1) Test sample (compound): The theoretical sample weighing amount was calculated according to the designed concentration and the required volume. Generally, the test sample was dissolved in DMSO to an initial preparation dose of 5.0 × 10^-3 M, and the solution was sequentially diluted with DMSO to 5.0 × 10^-4 M-5.0 × 10^-9 M; the diluted DMSO solution was diluted with Buffer to a working concentration of 5.0 × 10^-5 M-5.0 × 10^-11 M; and the final concentration of DMSO in the working solution was 1% (the final concentration of DMSO in the reaction system was 0.2%). The test sample was prepared and then stored at 4 °C. After the test was completed, the test sample was discarded.
(§2) CHO-K1-α1A, CHO-K1-α2A, CHO-K1-α2B, and CHO-K1-α2C cells were taken out of a refrigerator at -80 °C, thawed naturally, and centrifuged at 2000 g at 4 °C for 10 min. The supernatant was discarded, and the pellet was collected. […] The supernatant was discarded, and the buffer was added again. […] The supernatant was discarded, and the pellet was collected and stored at -80 °C.
(§3) Table 1. Experimental conditions for radioactive binding
(§4) Step 1: 50 µL of a vehicle (1% DMSO) was added to a total binding tube (TB), 50 µL of a non-labeled substance (with a final concentration of 1.0 × 10^-5 M) was added to a non-specific binding tube (NB), and 50 µL of a test compound was added to each test compound tube (CB).
(§5) Step 2: 100 µL of a buffer was added to each reaction tube.
(§6) Step 3: The prepared membrane was suspended in a buffer to give a membrane suspension with a corresponding concentration for later use.
(§7) Step 4: 50 µL of the corresponding radioligand was added to each reaction tube.
(§8) Step 5: 50 µL of the membrane suspension was added to each reaction tube.
(§9) Step 6: Each reaction tube was incubated according to the incubation conditions. After the reaction was completed, the binding ligands were rapidly filtered under reduced pressure. The UniFilter GF/C plate was saturated with a 0.5% PEI solution 1 h in advance, fully washed with an ice-cold Tris-HCl buffer, filtered under vacuum, then placed into a thermostatic dryer, and dried for 30 min. The filter plate was taken out, and a MICROSCINT PS scintillation solution was added at 40 µL/well.
(§10) Step 7: The scintillation vial was put into a liquid scintillation counter for counting.
(§11) Based on the effect values of the compound samples at different concentration test points, the GraphPad Prism software was used to fit the action curves of the compound samples to the receptors, and the Ki values were calculated.

The target of a further assay is T2, α2B receptor (Homo sapiens, UniProt P18089).
T2 construct: expressed in transfected cells; host or cells: CHO-K1
T2 sequence (P18089 1-450): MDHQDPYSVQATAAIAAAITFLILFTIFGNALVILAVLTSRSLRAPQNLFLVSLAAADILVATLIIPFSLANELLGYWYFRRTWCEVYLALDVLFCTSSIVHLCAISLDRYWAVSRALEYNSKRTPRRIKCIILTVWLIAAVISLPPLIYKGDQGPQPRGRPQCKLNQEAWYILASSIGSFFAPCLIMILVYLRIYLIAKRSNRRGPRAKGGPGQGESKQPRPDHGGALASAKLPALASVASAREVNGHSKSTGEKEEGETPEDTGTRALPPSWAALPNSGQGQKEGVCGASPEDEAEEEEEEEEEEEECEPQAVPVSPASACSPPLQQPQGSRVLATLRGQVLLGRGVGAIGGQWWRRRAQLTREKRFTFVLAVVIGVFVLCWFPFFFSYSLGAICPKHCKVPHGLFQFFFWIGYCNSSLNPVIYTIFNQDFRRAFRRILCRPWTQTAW
The assay can be described thus: Competitive receptor binding assay, α2B (3H-RX821002, CHO-K1-α2B membranes). The method, then: as §1, §2, §3, §4, §5, §6, §7, §8, §9, §10, §11

Another assay concerns the target T3, α2C receptor (Homo sapiens, UniProt P18825).
T3 construct: expressed in transfected cells; host or cells: CHO-K1
T3 sequence (P18825 1-462): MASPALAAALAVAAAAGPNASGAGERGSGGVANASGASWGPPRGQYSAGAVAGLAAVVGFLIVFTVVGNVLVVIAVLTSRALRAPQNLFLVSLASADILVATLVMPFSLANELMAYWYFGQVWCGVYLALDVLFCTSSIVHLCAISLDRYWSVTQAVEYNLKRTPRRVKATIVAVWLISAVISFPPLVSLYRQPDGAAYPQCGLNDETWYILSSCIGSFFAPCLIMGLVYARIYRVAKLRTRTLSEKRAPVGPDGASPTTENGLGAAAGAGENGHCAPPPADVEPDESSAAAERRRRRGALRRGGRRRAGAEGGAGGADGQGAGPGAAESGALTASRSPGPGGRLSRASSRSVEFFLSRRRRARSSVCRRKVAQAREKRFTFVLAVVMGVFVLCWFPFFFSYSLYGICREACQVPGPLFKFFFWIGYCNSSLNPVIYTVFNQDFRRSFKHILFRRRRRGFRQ
Description: Competitive receptor binding assay, α2C (3H-RX821002, CHO-K1-α2C membranes). On the procedure: as §1, §2, §3, §4, §5, §6, §7, §8, §9, §10, §11

Another assay concerns the target T4, α1A adrenoceptor (Homo sapiens, UniProt P35348).
T4 construct: host or cells: 293
T4 sequence (P35348 1-466): T1 sequence (P35348 1-466)
Description: Agonist screening mode IP-One assay, 293-α1A cells. The assay is classed as cell-based. On the procedure: (§12) The cells were centrifuged at 1000 rpm for 5 min, and the supernatant was discarded. 3 mL of PBS was added, and the mixture was gently pipetted to be mixed well. The cells were centrifuged again at 1000 rpm for 5 min, and the supernatant was discarded. […] After shaking, the assay plates were left to stand at room temperature for 60 min. • (8) Experimental readings: The plate was read on Envision, readings from the 665 nm and 615 nm channels were taken, and the ratio of 665 nm/615 nm readings was calculated.

The next assay addresses T5, α2B adrenoceptor (Homo sapiens, UniProt P18089).
T5 construct: host or cells: CHO
T5 sequence (P18089 1-450): T2 sequence (P18089 1-450)
Description: Agonist screening mode IP-One assay, CHO-α2B/Gα15 cells. In kind it is cell-based. The method, then:
as §12

The target of a further assay is T6, α2C adrenoceptor (Homo sapiens, UniProt P18825).
T6 construct: host or cells: CHO
T6 sequence (P18825 1-462): T3 sequence (P18825 1-462)
Description: Agonist screening mode IP-One assay, CHO-α2C/Gα15 cells. In kind it is cell-based. The method, then: as §12

Setting [1] is: Ki, CHO-K1-α1A membranes, 3H-Prazosin, read-out: Binding α1A.
Where [2] appears, read: Ki, CHO-K1-α2B membranes, 3H-RX821002, read-out: Binding α2B.
Where [3] appears, read: Ki, CHO-K1-α2C membranes, 3H-RX821002, read-out: Binding α2C.

As a reminder, the EC50 is the concentration needed to bring the measured effect to its halfway point. Regarding `c1cc2c(c(Cc3c[nH]cn3)c1)SCCC2` [Compound 1, 4-[1-(Thiochroman-8-yl)methyl]-1H-imidazole], the Ki on α1A receptor (setting [1]) was found to be 0.0679 µM; on α2B receptor (setting [2]), 0.0591 µM; on α2C receptor (setting [3]), 0.0293 µM. Moreover, the EC50 at α1A adrenoceptor worked out at 0.00316 µM; at α2B adrenoceptor it was 0.00409 µM; at α2C adrenoceptor, 0.0154 µM.
Take `CC(c1c[nH]cn1)c1cccc2c1SCCC2` (stereo not drawn) [Compound 2, 4-(1-[Thiochroman-8-yl)ethyl]-1H-imidazole]: the Ki was found to be 0.0912 µM at α1A receptor (setting [1]), 0.0117 µM on α2B receptor (setting [2]) and 0.0138 µM on α2C receptor (setting [3]). Further, the half-maximal effective concentration (EC50) was found to be 0.00532 µM at α1A adrenoceptor, 0.00303 µM on α2B adrenoceptor and 0.0184 µM at α2C adrenoceptor.
As to `CC(c1c[nH]cn1)c1cccc2c1CC2` (stereo not drawn) [Compound 3, 4-(1-(Bicyclo[4.2.0]octa-1(6),2,4-trien-2-yl)ethyl)-1H-imidazole], the Ki at α1A receptor worked out at 1.13 µM; on α2B receptor it was 0.0623 µM; at α2C receptor, 0.0261 µM. In addition, the EC50 at α1A adrenoceptor worked out at 0.057 µM; on α2B adrenoceptor, 0.00551 µM; at α2C adrenoceptor it was 0.191 µM.
With `CC(c1c[nH]cn1)c1cccc2c1CCCC2` (stereo not drawn) [Compound 4, 4-(1-(5,6,7,8-Tetrahydronaphthalen-1-yl)ethyl)-1H-imidazole], the Ki amounted to 2.05 µM at α1A receptor, 0.0646 µM on α2B receptor and 0.0461 µM at α2C receptor. In addition, the half-maximal effective concentration (EC50) on α1A adrenoceptor came to 0.0251 µM; on α2B adrenoceptor, 0.0544 µM; at α2C adrenoceptor, 0.278 µM.
Consider `CC(c1c[nH]cn1)c1cccc2c1C=CC2` (stereo not drawn) [Compound 8, 4-[1-(1H-Inden-4-yl)ethyl]-1H-imidazole], for which the Ki on α1A receptor was 1.13 µM; at α2B receptor it was 0.0377 µM; at α2C receptor it was 0.0189 µM. Moreover, the concentration for a half-maximal effect (EC50) on α1A adrenoceptor is 0.0218 µM; on α2B adrenoceptor, 0.0177 µM; at α2C adrenoceptor, 0.00989 µM.
Take `CC(c1c[nH]cn1)c1cccc2c1OCC2` (stereo not drawn) [Compound 10, 4-[1-(2,3-Dihydrobenzofuran-7-yl)ethyl]-1H-imidazole]: the Ki on α1A receptor was 0.766 µM; on α2B receptor it was 0.00605 µM; on α2C receptor it was 0.00644 µM. Also, the EC50 on α1A adrenoceptor stood at 0.0241 µM; at α2B adrenoceptor, 0.00166 µM; on α2C adrenoceptor, 0.00399 µM.
For `C[C@H](c1c[nH]cn1)c1cc(F)cc2c1C=CC2` [Compound 11-b, 4-[(1S)-1-(6-fluoro-1H-inden-4-yl)ethyl]-1H-imidazole], the Ki at α1A receptor turned out to be 0.671 µM; on α2B receptor, 0.0548 µM; at α2C receptor, 0.0238 µM. The EC50 at α1A adrenoceptor came to 0.0368 µM; at α2B adrenoceptor, 0.00255 µM; on α2C adrenoceptor it was 0.00087 µM.
With `CC(c1c[nH]cn1)c1cccc2c1C=CC2(C)C` (stereo not drawn) [Compound 17, 4-[1-(1,1-Dimethyl-1H-inden-4-yl)ethyl]-1H-imidazole], the results for the Ki on α1A receptor, at α2B receptor and at α2C receptor were > 10 µM, 0.244 µM and 0.594 µM, respectively. The EC50 at α1A adrenoceptor was 0.104 µM; on α2B adrenoceptor it was 0.00659 µM; at α2C adrenoceptor, 0.134 µM.
Consider `C[C@H](c1c[nH]cn1)c1cccc2c1CCC2` [Compound 31-b, (S)-4-[1-(2,3-dihydro-1H-inden-4-yl)ethyl]-1H-imidazole], for which the Ki stood at 0.424 µM at α1A receptor, 0.0329 µM on α2B receptor and 0.0108 µM at α2C receptor. The values for the concentration for a half-maximal effect (EC50) at α1A adrenoceptor, at α2B adrenoceptor and at α2C adrenoceptor were 0.00794 µM, 0.00108 µM and 0.00178 µM, respectively.
Consider `CC1Cc2cccc(C(C)c3c[nH]cn3)c2O1` (stereo not drawn) [Compound 32, 4-[1-(2-Methyl-2,3-dihydrobenzofuran-7-yl)ethyl]-1H-imidazole], for which the Ki on α1A receptor was 0.137 µM; on α2B receptor, 0.0281 µM; at α2C receptor, 0.0261 µM. In addition, the EC50 is 0.00473 µM on α1A adrenoceptor, 0.00223 µM at α2B adrenoceptor and 0.00813 µM at α2C adrenoceptor.
As for `C[C@H](c1c[nH]cn1)c1cc(F)cc2c1C(=O)CC2` [Compound 38-b, (S)-7-(1-(1H-imidazol-4-yl)ethyl)-5-fluoro-2,3-dihydro-1H-inden-1-one], the figures for the Ki on α1A receptor (setting [1]), on α2B receptor (setting [2]) and on α2C receptor (setting [3]) were 3.16 µM, 0.0491 µM and 0.0364 µM, respectively. Moreover, the concentration for a half-maximal effect (EC50) came out at 0.00975 µM at α1A adrenoceptor, 0.00384 µM at α2B adrenoceptor and 0.00221 µM at α2C adrenoceptor.
With `Cc1cccc([C@H](C)c2cnc[nH]2)c1C` [Dexmedetomidine hydrochloride, reference compound], the Ki at α1A receptor (setting [1]) stood at 0.593 µM; at α2B receptor (setting [2]), 0.00366 µM; at α2C receptor (setting [3]), 0.00734 µM. For the same compound, the concentration giving a half-maximal response (EC50) on α1A adrenoceptor worked out at 0.00955 µM; on α2B adrenoceptor, 0.00096 µM; on α2C adrenoceptor, 0.00205 µM.
